The source of these data is paper PMC4580985, “Calcium ions open a selectivity filter gate during activation of the MthK potassium channel” (Nature Communications, 2015).

The assay deals with T1, MthK (Methanothermobacter thermautotrophicus, UniProt O27564).
T1 construct: MthK channel with pore and cytosolic gating ring (RCK), purified in decyl maltoside, Superdex 200, reconstituted in DOPC:POPG 3:1 liposomes
Kind of assay: stopped-flow Tl+ flux (ANTS quench) in MthK liposomes, blocker equilibration time course. The class given is biochemical. The following applies: read-out: KD^ap. The source says:
stopped-flow Tl+ flux (ANTS quench) in MthK liposomes, blocker equilibration time course on MthK

The Kd is the concentration at which binding is half-saturated. In the case of `CCCC[N+](CCCC)(CCCC)Cc1ccc(Br)cc1` [Br-bTBA, 4-bromobenzyltributylammonium bromide], the Kd stood at 2600 ± 400 nM.

Turning to `CCCC[N+](CCCC)(CCCC)Cc1ccc(C(=O)c2ccccc2)cc1` [bbTBA, N-(4-[benzoyl]benzyl)-N,N,N-tributylammonium], the Kd worked out at 700 ± 200 nM.

On to `CCCCC[N+](CCCCC)(CCCCC)CCCCC` [TPeA], for which the Kd is 2100 ± 200 nM.
